Experimental data taken from ChEMBL document CHEMBL1255496, “Pharmacokinetic-pharmacodynamic-model-guided doripenem dosing in critically ill patients” (2010).
Values after ≈ are worked out from the molar mass of the structure shown.

Legend:
Type in all cases: functional
[1] = tested on: Streptococcus sp.; assay: Antimicrobial activity against Streptococcus sp. clinical isolates
[2] = tested on: Staphylococcus sp.; assay: Antimicrobial activity against Coagulase-negative oxacillin-susceptible Staphylococcus sp. clinical isolates
[3] = T>MIC in bacilli infected patients with severe renal impairment at 250 mg administered as 4 hrs infusion every 12 hrs
[4] = tested on: Proteus mirabilis; assay: Antimicrobial activity against Proteus mirabilis clinical isolates
[5] = T>MIC in bacilli infected patients with moderate renal impairment at 250 mg administered as 1 hr infusion every 8 hrs
[6] = tested on: Haemophilus sp.; assay: Antimicrobial activity against Haemophilus sp. clinical isolates
[7] = tested on: Enterobacter cloacae; assay: Antimicrobial activity against Enterobacter cloacae clinical isolates
[8] = tested on: Streptococcus pneumoniae; assay: Antimicrobial activity against Streptococcus pneumoniae clinical isolates
[9] = tested on: Klebsiella aerogenes; assay: Antimicrobial activity against Enterobacter aerogenes clinical isolates
[10] = tested on: Enterococcus faecalis; assay: Antimicrobial activity against Enterococcus faecalis clinical isolates
[11] = tested on: Proteus mirabilis; assay: Antimicrobial activity against Proteus mirabilis clinical isolate obtained from critically ill patients
[12] = tested on: Staphylococcus aureus; assay: Antimicrobial activity against methicillin-resistant Staphylococcus aureus clinical isolate obtained from critically ill patients
[13] = tested on: Enterococcus sp.; assay: Antimicrobial activity against Enterococcus sp. clinical isolates
[14] = tested on: Staphylococcus aureus; assay: Antimicrobial activity against methicillin-susceptible Staphylococcus aureus clinical isolate obtained from critically ill patients
[15] = tested on: Citrobacter freundii; assay: Antimicrobial activity against Citrobacter freundii clinical isolates
[16] = tested on: Escherichia coli; assay: Antimicrobial activity against Escherichia coli clinical isolate obtained from critically ill patients
[17] = tested on: Klebsiella pneumoniae; assay: Antimicrobial activity against Klebsiella pneumoniae clinical isolate obtained from critically ill patients
[18] = tested on: Haemophilus influenzae; assay: Antimicrobial activity against Haemophilus influenzae clinical isolate obtained from critically ill patients
[19] = tested on: Staphylococcus sp.; assay: Antimicrobial activity against Coagulase-negative Staphylococcus sp. clinical isolates
[20] = tested on: Klebsiella oxytoca; assay: Antimicrobial activity against Klebsiella oxytoca clinical isolates
[21] = tested on: Streptococcus pneumoniae; assay: Antimicrobial activity against Streptococcus pneumoniae clinical isolate obtained from critically ill patients
[22] = tested on: Staphylococcus aureus; assay: Antimicrobial activity against oxacillin-susceptible Staphylococcus aureus clinical isolates
[23] = tested on: Serratia marcescens; assay: Antimicrobial activity against Serratia marcescens clinical isolates
[24] = tested on: Citrobacter koseri; assay: Antimicrobial activity against Citrobacter koseri clinical isolates
[25] = tested on: Acinetobacter baumannii; assay: Antimicrobial activity against Acinetobacter baumannii clinical isolates
[26] = tested on: Klebsiella pneumoniae; assay: Antimicrobial activity against Klebsiella pneumoniae clinical isolates
[27] = tested on: Acinetobacter sp.; assay: Antimicrobial activity against Acinetobacter sp. clinical isolates
[28] = tested on: Staphylococcus sp.; assay: Antimicrobial activity against Staphylococcus sp. clinical isolates
[29] = tested on: Enterobacteriaceae; assay: Antimicrobial activity against Enterobacteriaceae clinical isolates
[30] = tested on: Pseudomonas aeruginosa; assay: Antimicrobial activity against Pseudomonas aeruginosa clinical isolate obtained from critically ill patients
[31] = tested on: Stenotrophomonas maltophilia; assay: Antimicrobial activity against Stenotrophomonas maltophilia clinical isolates
[32] = tested on: Morganella morganii; assay: Antimicrobial activity against Morganella morganii clinical isolates
[33] = tested on: Acinetobacter sp.; assay: Antimicrobial activity against Acinetobacter sp. clinical isolate obtained from critically ill patients
[34] = T>MIC in bacilli infected patients with renal impairment at 500 mg administered as 1 hr infusion every 8 hrs
[35] = tested on: Enterobacter cloacae; assay: Antimicrobial activity against Enterobacter cloacae clinical isolate obtained from critically ill patients
[36] = tested on: Escherichia coli; assay: Antimicrobial activity against Escherichia coli clinical isolates
[37] = tested on: Pseudomonas aeruginosa; assay: Antimicrobial activity against Pseudomonas aeruginosa clinical isolates
[38] = tested on: Enterococcus faecalis; assay: Antimicrobial activity against Enterococcus faecalis clinical isolate obtained from critically ill patients
[39] = tested on: Staphylococcus aureus; assay: Antimicrobial activity against Staphylococcus aureus clinical isolates
[40] = tested on: Burkholderia cepacia; assay: Antimicrobial activity against Burkholderia cepacia clinical isolates

C[C@@H](O)[C@H]1C(=O)N2C(C(=O)O)=C(S[C@@H]3CN[C@H](CNS(N)(=O)=O)C3)[C@H](C)[C@H]12 [DORIPENEM]
MIC [1]: ≤ 0.03 µg/mL | MIC50 [1]: ≤ 0.03 µg/mL | MIC90 [1]: 0.06 µg/mL (≈ 0.143 µM) | MIC [2]: ≤ 0.03 µg/mL | MIC50 [2]: ≤ 0.03 µg/mL | MIC90 [2]: 0.25 µg/mL (≈ 0.595 µM) | fT>MIC [3]: 35% | MIC50 [4]: 0.25 µg/mL (≈ 0.595 µM) | MIC90 [4]: 0.5 µg/mL (≈ 1.19 µM) | fT>MIC [5]: 35% | MIC50 [6]: 0.06 µg/mL (≈ 0.143 µM) | MIC90 [6]: 0.25 µg/mL (≈ 0.595 µM) | MIC50 [7]: 0.06 µg/mL (≈ 0.143 µM) | MIC90 [7]: 0.5 µg/mL (≈ 1.19 µM) | MIC [8]: ≤ 0.03 µg/mL | MIC50 [8]: ≤ 0.03 µg/mL | MIC90 [8]: 0.5 µg/mL (≈ 1.19 µM) | MIC50 [9]: 0.06 µg/mL (≈ 0.143 µM) | MIC90 [9]: 0.12 µg/mL (≈ 0.285 µM) | MIC50 [10]: 4 µg/mL (≈ 9.51 µM) | MIC90 [10]: 4 µg/mL (≈ 9.51 µM) | MIC50 [11]: 0.25 µg/mL (≈ 0.595 µM) | MIC90 [11]: 1 µg/mL (≈ 2.38 µM) | MIC50 [12]: 1 µg/mL (≈ 2.38 µM) | MIC90 [12]: 16 µg/mL (≈ 38 µM) | MIC50 [13]: 4 µg/mL (≈ 9.51 µM) | MIC90 [13]: 32 µg/mL (≈ 76.1 µM) | MIC50 [14]: 0.03 µg/mL (≈ 0.0713 µM) | MIC90 [14]: 0.06 µg/mL (≈ 0.143 µM) | MIC [15]: ≤ 0.03 µg/mL | MIC50 [15]: ≤ 0.03 µg/mL | MIC90 [15]: 0.06 µg/mL (≈ 0.143 µM) | MIC50 [16]: 0.03 µg/mL (≈ 0.0713 µM) | MIC90 [16]: 0.06 µg/mL (≈ 0.143 µM) | MIC50 [17]: 0.06 µg/mL (≈ 0.143 µM) | MIC90 [17]: 0.25 µg/mL (≈ 0.595 µM) | MIC50 [18]: 0.12 µg/mL (≈ 0.285 µM) | MIC90 [18]: 0.5 µg/mL (≈ 1.19 µM) | MIC50 [19]: 0.06 µg/mL (≈ 0.143 µM) | MIC90 [19]: 16 µg/mL (≈ 38 µM) | MIC50 [20]: 0.06 µg/mL (≈ 0.143 µM) | MIC90 [20]: 0.06 µg/mL (≈ 0.143 µM) | MIC [21]: ≤ 0.015 µg/mL | MIC50 [21]: ≤ 0.015 µg/mL | MIC90 [21]: 0.5 µg/mL (≈ 1.19 µM) | MIC [22]: ≤ 0.03 µg/mL | MIC50 [22]: ≤ 0.03 µg/mL | MIC90 [22]: 0.06 µg/mL (≈ 0.143 µM) | MIC50 [23]: 0.12 µg/mL (≈ 0.285 µM) | MIC90 [23]: 0.25 µg/mL (≈ 0.595 µM) | MIC [24]: ≤ 0.03 µg/mL | MIC50 [24]: ≤ 0.03 µg/mL | MIC90 [24]: 0.06 µg/mL (≈ 0.143 µM) | MIC50 [25]: 1 µg/mL (≈ 2.38 µM) | MIC90 [25]: 32 µg/mL (≈ 76.1 µM) | MIC50 [26]: 0.06 µg/mL (≈ 0.143 µM) | MIC90 [26]: 0.12 µg/mL (≈ 0.285 µM) | MIC50 [27]: 0.5 µg/mL (≈ 1.19 µM) | MIC90 [27]: 32 µg/mL (≈ 76.1 µM) | MIC50 [28]: ≤ 0.03 µg/mL | MIC90 [28]: 16 µg/mL (≈ 38 µM) | MIC [29]: ≤ 0.03 µg/mL | MIC50 [29]: ≤ 0.03 µg/mL | MIC90 [29]: 0.12 µg/mL (≈ 0.285 µM) | MIC50 [30]: 0.5 µg/mL (≈ 1.19 µM) | MIC90 [30]: 8 µg/mL (≈ 19 µM) | MIC50 [31]: 64 µg/mL (≈ 152 µM) | MIC90 [31]: > 128 µg/mL | MIC50 [32]: 0.25 µg/mL (≈ 0.595 µM) | MIC90 [32]: 1 µg/mL (≈ 2.38 µM) | MIC50 [33]: 16 µg/mL (≈ 38 µM) | MIC90 [33]: > 32 µg/mL | fT>MIC [34]: 35% | MIC50 [35]: 0.06 µg/mL (≈ 0.143 µM) | MIC90 [35]: 0.12 µg/mL (≈ 0.285 µM) | MIC [36]: ≤ 0.03 µg/mL | MIC50 [36]: ≤ 0.03 µg/mL | MIC90 [36]: 0.03 µg/mL (≈ 0.0713 µM) | MIC50 [37]: 0.5 µg/mL (≈ 1.19 µM) | MIC90 [37]: 4 µg/mL (≈ 9.51 µM) | MIC50 [38]: 4 µg/mL (≈ 9.51 µM) | MIC90 [38]: 4 µg/mL (≈ 9.51 µM) | MIC50 [39]: ≤ 0.03 µg/mL | MIC90 [39]: 16 µg/mL (≈ 38 µM) | MIC [40]: 2 µg/mL (≈ 4.76 µM)
